Experimental data reported in PMC8799360, “In Vitro and In Vivo Effect of Xylopic Acid on Cytochrome P450 Enzymes” (Advances in Pharmacological and Pharmaceutical Sciences, 2022).

System: T1, CYP 3A4
T1 construct: liver microsomes from phenobarbitone-pretreated male rats
Assay: fluorometric benzyloxyresorufin (BROD) assay in rat liver microsomes
Assay type: biochemical

Row | SMILES | IC50 [µM]
2 | C=C1[C@@H]2CC[C@H]3[C@]4(C)CCC[C@@](C)(C(=O)O)[C@H]4CC[C@]3(C2)[C@@H]1OC(C)=O [XA, xylopic acid] | 1.3 ± 0.01
